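Values below derive from 48-hour exposures of cells grown in 96-well plates, with endpoints linearly interpolated between the two concentrations bracketing the appropriate inhibition level. GI50: concentration for 50% inhibition of growth.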 Calls of active or inactive are those of the source. No stated cut-off is given here; in the data, active = GI50 up to about 1.1 µM and inactive = higher.
Experiments:
Assay in all cases: NCI tumour cell line growth inhibition, 48 h
786-0 = tested on: 786-0
A549 = tested on: A549
CAKI-1 = tested on: CAKI-1
HCC 2998 = tested on: HCC 2998
HCT-15 = tested on: HCT-15
HL-60 = tested on: HL-60
IGROV-1 = tested on: IGROV-1
KM12 = tested on: KM12
LOX IMVI = tested on: LOX IMVI
MDA-MB-231 = tested on: MDA-MB-231
NCI-H23 = tested on: NCI-H23
OVCAR-4 = tested on: OVCAR-4
OVCAR-5 = tested on: OVCAR-5
SF-268 = tested on: SF-268
SF-295 = tested on: SF-295
SK-MEL-28 = tested on: SK-MEL-28
SW-620 = tested on: SW-620
UO-31 = tested on: UO-31
SNB-19 = tested on: SNB-19

| Compound | GI50 (786-0) | GI50 (A549) | GI50 (CAKI-1) | GI50 (HCC 2998) | GI50 (HCT-15) [µM] | GI50 (HL-60) | GI50 (IGROV-1) | GI50 (KM12) | GI50 (LOX IMVI) | GI50 (MDA-MB-231) | GI50 (NCI-H23) | GI50 (OVCAR-4) | GI50 (OVCAR-5) | GI50 (SF-268) | GI50 (SF-295) | GI50 (SK-MEL-28) | GI50 (SW-620) | GI50 (UO-31) | GI50 (SNB-19) |
| --- | --- | --- | --- | --- | --- | --- | --- | --- | --- | --- | --- | --- | --- | --- | --- | --- | --- | --- | --- |
| CCC[N+](C)(C)CCCNC(=O)c1c(O)c2ccccc2[nH]c1=O | > 100 µM (inactive) | 46.3 µM (inactive) | > 100 µM (inactive) | > 100 µM (inactive) | > 100 | > 100 µM (inactive) | 89.1 µM (inactive) | > 100 µM (inactive) | > 100 µM (inactive) | > 100 µM (inactive) | > 100 µM (inactive) | > 100 µM (inactive) | > 100 µM (inactive) | > 100 µM (inactive) | > 100 µM (inactive) | > 100 µM (inactive) | > 100 µM (inactive) | 53.1 µM (inactive) | – |
| CCOC(=O)c1c(SC(=O)c2cc(OC)c(OC)c(OC)c2)n(-c2ccccc2)c(=S)n(-c2ccccc2)c1=O | > 100 µM (inactive) | > 100 µM (inactive) | > 100 µM (inactive) | > 100 µM (inactive) | > 100 | > 100 µM (inactive) | > 100 µM (inactive) | > 100 µM (inactive) | > 100 µM (inactive) | > 100 µM (inactive) | > 100 µM (inactive) | > 100 µM (inactive) | > 100 µM (inactive) | > 100 µM (inactive) | > 100 µM (inactive) | > 100 µM (inactive) | > 100 µM (inactive) | – | > 100 µM (inactive) |
| CCOP(=O)(OCC)/C(=C\n1ccc(=O)[nH]c1=S)C(=O)OC | > 100 µM (inactive) | > 100 µM (inactive) | > 100 µM (inactive) | > 100 µM (inactive) | > 100 | > 100 µM (inactive) | > 100 µM (inactive) | > 100 µM (inactive) | > 100 µM (inactive) | > 100 µM (inactive) | > 100 µM (inactive) | > 100 µM (inactive) | > 100 µM (inactive) | > 100 µM (inactive) | > 100 µM (inactive) | > 100 µM (inactive) | > 100 µM (inactive) | > 100 µM (inactive) | – |
| CC(=O)OCc1nc(C#N)c(N)o1 | > 100 µM (inactive) | – | > 100 µM (inactive) | > 100 µM (inactive) | > 100 | > 100 µM (inactive) | > 100 µM (inactive) | > 100 µM (inactive) | > 100 µM (inactive) | > 100 µM (inactive) | > 100 µM (inactive) | > 100 µM (inactive) | > 100 µM (inactive) | > 100 µM (inactive) | > 100 µM (inactive) | > 100 µM (inactive) | > 100 µM (inactive) | > 100 µM (inactive) | > 100 µM (inactive) |
| Cc1ccc(C2=Nn3c(nc4sc(C)c(C)c4c3=O)SC2)cc1 | > 100 µM (inactive) | > 100 µM (inactive) | > 100 µM (inactive) | > 100 µM (inactive) | > 100 | > 100 µM (inactive) | > 100 µM (inactive) | > 100 µM (inactive) | > 100 µM (inactive) | > 100 µM (inactive) | > 100 µM (inactive) | > 100 µM (inactive) | > 100 µM (inactive) | > 100 µM (inactive) | > 100 µM (inactive) | > 100 µM (inactive) | > 100 µM (inactive) | > 100 µM (inactive) | – |
| CC1(C)CC(=O)C(=CNC(=O)c2ccncc2)C(=O)C1 | > 100 µM (inactive) | > 100 µM (inactive) | > 100 µM (inactive) | > 100 µM (inactive) | > 100 | 71.3 µM (inactive) | > 100 µM (inactive) | > 100 µM (inactive) | > 100 µM (inactive) | > 100 µM (inactive) | > 100 µM (inactive) | > 100 µM (inactive) | > 100 µM (inactive) | > 100 µM (inactive) | > 100 µM (inactive) | > 100 µM (inactive) | > 100 µM (inactive) | > 100 µM (inactive) | > 100 µM (inactive) |
